{"source": "patent US8093430B2", "about": "“Methods of inhibiting ethylene responses in plants using cyclopropene amine compounds” (North Carolina State University, priority 2007, dated 2012)", "key": {"bananas [1]": {"system": "bananas", "experiment": "Time of protection of bananas against ethylene", "type": "in vivo, Musa paradisiaca L", "procedure": "Untreated mature green bananas (Musa paradisiaca L) from Costa Rica which were ready for market were obtained from the local Farmers Market and were kept at 14.5° C. until use. Bananas were used within 24 hours of arrival. Experiments were conducted at approximately 22-23° C. No damaged fruit were used in the experiments. Bananas were treated to an amount of compound believed to saturate the receptor sites (10 times the minimum amount for protection). The bananas were exposed for 24 hours then vented. They were kept on a laboratory bench and each day a sample was exposed to ethylene. The day the bananas were treated with ethylene and the day the bananas turned yellow and became soft were recorded. Generally, this observation occurred about 3 days after the ethylene treatment day. The treatment day the bananas first ripened was considered to be the time of protection."}, "bananas [2]": {"system": "bananas", "experiment": "Minimum amount of cyclopropene as a gas required to protect bananas from ethylene", "type": "in vivo, Musa paradisiaca L", "conditions": "for minimum concentration required for protection of bananas: 24 hour exposure, compound as a gas; for Minimum Concentration: amount of compound as a gas that would protect bananas by a 24 hour exposure; for minimum protection value: as a gas, restated with FIG. 3", "procedure": "Untreated mature green bananas (Musa paradisiaca L) from Costa Rica which were ready for market were obtained from the local Farmers Market and were kept at 14.5° C. until use. Bananas were used within 24 hours of arrival. Experiments were conducted at approximately 22-23° C. No damaged fruit were used in the experiments. […] The jars were then vented and ethylene was injected and allowed to stand for a minimum of 15 hours and then allowed to stand at 23° C. until ethylene responses developed. For gaseous phase treatment, the compound is applied to bananas by pipetting solution onto filter paper. Filter paper is used to increase surface area in a 3 L jar. The jar is sealed for 24 hours to give enough time to diffuse through plant tissue to the ethylene binding sites. 333 ul/L of ethylene gas is added to the jars. The jars are then resealed for 15 hours. This allows for maximal exposure to ethylene to measure effectiveness of the compounds. Firmness was recorded over a number of days. Disappearance of chlorophyll was determined by extracting chlorophyll from banana peels. Absorbance was measured in a spectrometer. The minimum amount of cyclopropene necessary to protect bananas from ethylene was determined after the bananas had been exposed to the compound for 24 hours. Following this time, the fruits were vented for 10 minutes and then exposed to 333 ? l^-I of ethylene gas treatment. This has been the procedure for most other studies involving cyclopropene compounds and bananas. This time was used so that a reasonable comparison could be made with previous work ([…]. et al. 1996 a; 1996b; 1999; 2001; 2003). (See […]., et al., Effect of 1-methylcyclopropene, and methylenecyclopropene on ethylene binding and ethylene action in cut carnations, Plant Growth Reg., 18, 79-86, (1996a); […]., et al., The effect of chemical structure on the antagonism by cyclopropenes of ethylene responses in banana, Plant Growth Reg., 33, 107-110 (2001); […]., et al., 1-Substituted cyclopropenes: Effective blocking agents for ethylene action in plants, Plant Growth Reg. 40, 221-228 (2003))."}, "banana peel": {"system": "banana peel", "experiment": "Protection of chlorophyll in banana peel by compound applied as salt (swab) or gas, then ethylene", "type": "in vivo, Musa paradisiaca L", "conditions": "for difference between the highest and lowest chlorophyll value of the concentration series: FIG. 3, acetate salts, series 1 to 2.5 times starting at 3 times the gas minimum, 24 hour exposure; for chlorophyll level in banana peels against concentration: FIG. 6A, treated using acetic acid", "procedure": "Untreated mature green bananas (Musa paradisiaca L) from Costa Rica which were ready for market were obtained from the local Farmers Market and were kept at 14.5° C. until use. Bananas were used within 24 hours of arrival. Experiments were conducted at approximately 22-23° C. No damaged fruit were used in the experiments. […] The jars were then vented and ethylene was injected and allowed to stand for a minimum of 15 hours and then allowed to stand at 23° C. until ethylene responses developed. When the effect of the respective salts of the cyclopropenes were assayed, the salt was mixed with the desired amount of water containing Tween 20 as a wetting agent and the acid. Usually 200 μl of water, 20 μl of Tween 20 and 100 μl of 0.1 M acid and the compound dissolved in ether were used. These salts were applied to the banana. The peels were swabbed to spread the mixture and increase the exposed surface area. The bananas were placed in an unsealed 3-liter jar and allowed to stand 24 hours. In the case of the carbonate salt, the compound was exposed to carbon dioxide in water long enough for the salt to form. In this case, the carbonate salt was formed by mixing the compound dissolved in water with CO2. The concentration of CO2 in water at 1 atmosphere and 25° C. is reported to be 0.0338 M (Daniels and Alberty 1955) (See Daniels, F, et al., Physical Chemistry, John Wiley and Sons New York, 200 (1955). […] (See Cotton, et al., Advanced Inorganic Chemistry John Wiley and Sons. New York, 152 (1999). At the end of 24 hours, ethylene was injected and the jars were sealed. After 15 hours exposure, the bananas were removed and observed for several days for the effect of ethylene. An untreated check banana and a similar untreated banana treated with ethylene only were included in each experiment for comparison. For gaseous phase treatment, the compound is applied to bananas by pipetting solution onto filter paper. Filter paper is used to increase surface area in a 3 L jar. The jar is sealed for 24 hours to give enough time to diffuse through plant tissue to the ethylene binding sites. 333 ul/L of ethylene gas is added to the jars. The jars are then resealed for 15 hours. This allows for maximal exposure to ethylene to measure effectiveness of the compounds. Firmness was recorded over a number of days. Disappearance of chlorophyll was determined by extracting chlorophyll from banana peels. Absorbance was measured in a spectrometer. For aqueous phase (salts) treatment, compounds were alternatively tested by mixing the solutions in acid and a detergent. The detergent, Tween 20, was used as a wetting agent. Solutions were then applied at various concentrations to the banana with a cotton swab. Bananas were then sealed in a jar and treated in the same manner as with the gas compound procedures described above. Chlorophyll was determined by the method of Arnon (Arnon, D I (1949) Copper content in isolated chloroplasts. Polyphenoloxidase in Beta vulgaris. Plant Physiology 24:1-15) or by using a reflective chlorophyll meter (Field Scout CM 1000 Spectronic Technologies Inc.). To extract chlorophyll, a measured area of peel was cut from representative areas of the peel and placed in boiling water for 3 minutes. The samples were then removed and blended with acetone. After standing overnight in the dark, they were filtered then concentrated in a hood and chlorophyll determined by the method of Arnon (1949) according to the procedures outlined by Holden (1965). Banana peel samples were cut and mixed with acetone to extract chlorophyll. Samples were made in an ether solution and absorbance measured at 663 nm."}, "bananas [3]": {"system": "bananas", "experiment": "Stability of the compound after 1 hour incubation with acids or salts at different pH, read by banana chlorophyll", "type": "physicochemical, Musa paradisiaca L", "conditions": "for Chlorophyll (% of control): readings at 7 days", "procedure": "Chlorophyll was determined by the method of Arnon (Arnon, D I (1949) Copper content in isolated chloroplasts. Polyphenoloxidase in Beta vulgaris. Plant Physiology 24:1-15) or by using a reflective chlorophyll meter (Field Scout CM 1000 Spectronic Technologies Inc.). To extract chlorophyll, a measured area of peel was cut from representative areas of the peel and placed in boiling water for 3 minutes. The samples were then removed and blended with acetone. After standing overnight in the dark, they were filtered then concentrated in a hood and chlorophyll determined by the method of Arnon (1949) according to the procedures outlined by Holden (1965).\nHowever, these compounds are thought to be unstable under very acidic conditions. Liao et al. in some synthetic procedures lower the pH to 1-3."}, "[4]": {"conditions": "cited from earlier work"}, "[5]": {"conditions": "24 hour exposure at 10 times the minimum amount, daily ethylene challenge"}}, "note": "Like-named read-outs stand apart in the source and are kept apart here.", "data": [{"molecule": "CN(C)CC1=CC1", "note": "[N,N--Dimethyl (1-Cyclopropenylmethyl)amine]", "values": [{"measurement": "protection time", "setting": "bananas [1]", "value": 34, "unit": "days"}, {"measurement": "protection time", "setting": "bananas [1]; [5]", "value": 34, "unit": "days"}, {"measurement": "minimum concentration required for protection of bananas", "setting": "bananas [2]", "value": 73, "unit": "nl l^−I"}, {"measurement": "Minimum Concentration", "setting": "bananas [2]", "value": 73, "unit": "nl/l"}, {"measurement": "minimum protection value", "setting": "bananas [2]", "value": 73, "unit": "nl l^−1"}, {"measurement": "difference between the highest and lowest chlorophyll value of the concentration series", "setting": "banana peel", "value": "30.9 % of the control"}, {"measurement": "chlorophyll level in banana peels against concentration", "setting": "banana peel", "value": "ascending concentrations to have increasingly higher chlorophyll levels"}]}, {"molecule": "CCCCN(CCCC)CC1=CC1", "note": "[N,N--Dibutyl (1-Cyclopropenylmethyl)amine]", "values": [{"measurement": "Chlorophyll (% of control)", "setting": "bananas [3]; Gas control, bananas exposed as a gas 24 hours then ethylene 15 hours", "value": "100 % of control"}, {"measurement": "inactivation by acids or salts", "setting": "bananas [3]; different pH values down to pH 1.5 for 1 hour, re-isolated and used in the usual treatments", "value": "little or no inactivation occurred"}, {"measurement": "Chlorophyll (% of control)", "setting": "bananas [3]; incubated 1 hour in H2O, neutralized, ether extract applied as a gas 24 hours, ethylene 15 hours", "value": "98 % of control"}, {"measurement": "Chlorophyll (% of control)", "setting": "bananas [3]; incubated 1 hour in phosphoric acid (.1M, pH 1.5)", "value": "98 % of control"}, {"measurement": "Chlorophyll (% of control)", "setting": "bananas [3]; incubated 1 hour in sodium acetate (0.1M, pH 4.75)", "value": "100 % of control"}, {"measurement": "Chlorophyll (% of control)", "setting": "bananas [3]; incubated 1 hour in sodium formate (0.1M, pH 3.0)", "value": "100 % of control"}, {"measurement": "protection time", "setting": "bananas [1]", "value": 33, "unit": "days"}, {"measurement": "protection time", "setting": "bananas [1]; [5]", "value": 33, "unit": "days"}, {"measurement": "minimum concentration required for protection of bananas", "setting": "bananas [2]", "value": 184, "unit": "nl l^−I"}, {"measurement": "Minimum Concentration", "setting": "bananas [2]", "value": 184, "unit": "nl/l"}, {"measurement": "minimum protection value", "setting": "bananas [2]", "value": 184, "unit": "nl l^−1"}, {"measurement": "rapidity of receptor inactivation relative to the dimethyl compound", "setting": "banana peel; FIG. 3, 24 hour exposure", "value": 1.55, "unit": "×"}, {"measurement": "difference between the highest and lowest chlorophyll value of the concentration series", "setting": "banana peel", "value": "48 % of the control"}, {"measurement": "protection of bananas compared with the dimethyl compound", "setting": "banana peel; FIG. 5, aqueous phase, swabbed onto the top half, four days after exposure to ethylene gas", "value": "less protection"}, {"measurement": "chlorophyll level in banana peels against concentration", "setting": "banana peel", "value": "ascending concentrations to have increasing levels of chlorophyll"}]}, {"molecule": "O=C=O", "note": "[CO2, carbon dioxide]", "values": [{"measurement": "concentration in water", "setting": "[4]; 1 atmosphere and 25° C. (Daniels and Alberty 1955)", "value": 0.0338, "unit": "M"}]}, {"molecule": "O=C(O)O", "note": "[carbonic acid]", "values": [{"measurement": "pKa", "setting": "[4]; corrected for the equilibrium (Cotton et al. 1999)", "value": 3.58}, {"measurement": "pKa", "setting": "[4]; usually published value", "value": 6.38}]}, {"molecule": "N-(1-methylcyclopropene)-aniline", "values": [{"measurement": "protection time", "setting": "bananas [1]", "value": 32, "unit": "days"}, {"measurement": "protection time", "setting": "bananas [1]; [5]", "value": 32, "unit": "days"}, {"measurement": "minimum concentration required for protection of bananas", "setting": "bananas [2]", "value": 248, "unit": "nl l^−I"}, {"measurement": "Minimum Concentration", "setting": "bananas [2]", "value": 248, "unit": "nl/l"}]}, {"molecule": "CCN(CC)CC1=CC1", "note": "[N,N--Diethyl (1-Cyclopropenylmethyl)amine]", "values": [{"measurement": "protection time", "setting": "bananas [1]", "value": 32, "unit": "days"}, {"measurement": "protection time", "setting": "bananas [1]; [5]", "value": 32, "unit": "days"}, {"measurement": "minimum concentration required for protection of bananas", "setting": "bananas [2]", "value": 59, "unit": "nl l^−I"}, {"measurement": "Minimum Concentration", "setting": "bananas [2]", "value": 59, "unit": "nl/l"}]}, {"molecule": "C1=C(CNCC2=CC2)C1", "values": [{"measurement": "protection time", "setting": "bananas [1]", "value": 33, "unit": "days"}, {"measurement": "protection time", "setting": "bananas [1]; [5]", "value": 33, "unit": "days"}, {"measurement": "minimum concentration required for protection of bananas", "setting": "bananas [2]", "value": 5.3, "unit": "nl l^−I"}, {"measurement": "Minimum Concentration", "setting": "bananas [2]", "value": 5.7, "unit": "nl/l"}]}]}
